Test systems include NCI-H23; HCT-15; T47D; TK-10; U-251; K562; OVCAR-4; Hs-578T; SF-268; SNB-75; RXF 393; MDA-MB-435; MDA-MB-231; NCI-H522; OVCAR-3; SK-OV-3; HL-60; OVCAR-8; SK-MEL-2.
Common to all, as to test: DTP human tumour cell line panel, 48 h

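Growth conditions: 96-well plates. Treatment: test compound, 48 hours, 5 concentrations. Analysis: linear interpolation between bracketing concentrations; unreached endpoints set to highest concentration. The concentration for 50% growth inhibition is given as GI50.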 The source made the active and inactive calls. Rule as the data show it: active = GI50 up to about 1.1 µM and inactive = higher.

This note sets out measurements from ChEMBL document CHEMBL1201862, “PubChem BioAssay data set” (2004).

With `Oc1cccc2c(Cl)ccnc12`, the GI50 in the assay on NCI-H23 was 3.15 µM (inactive); in the assay with HCT-15 it was 0.305 µM; in the assay with T47D, 0.397 µM (active); in the assay on TK-10 it was 44.3 µM (inactive); with U-251 it was 1.45 µM (inactive); with K562, 0.42 µM (active). Moreover, the GI50 is 1.7 µM (inactive) with OVCAR-4; 7.93 µM (inactive) with Hs-578T; 0.522 µM (active) in the assay with SF-268; 28.5 µM (inactive) in the assay on SNB-75; 0.83 µM (active) in the assay on RXF 393; 2.67 µM (inactive) with MDA-MB-435. Besides, the GI50 was 1.13 µM (inactive) with MDA-MB-231; 0.741 µM (active) in the assay with NCI-H522; 0.287 µM (active) with OVCAR-3; 32.9 µM (inactive) in the assay on SK-OV-3; 0.124 µM (active) in the assay with HL-60; 0.372 µM (active) in the assay on OVCAR-8.
For `COC(=O)C1(NC(=O)C(CC(=O)OCc2ccccc2)NC(=O)OCc2ccccc2)CCCCCCC1` (configuration not stated), the GI50 in the assay with NCI-H23 is 46.6 µM (inactive); in the assay with HCT-15, 30.3 µM; in the assay on T47D, 17.6 µM (inactive); with TK-10 it was 47.4 µM (inactive); in the assay with U-251, 47.2 µM (inactive); with K562 it was 10.2 µM (inactive). The GI50 is 29.8 µM (inactive) with OVCAR-4; 45.6 µM (inactive) in the assay with Hs-578T; 44.7 µM (inactive) in the assay with SF-268; 28.6 µM (inactive) in the assay on SNB-75; 15.4 µM (inactive) in the assay on RXF 393; 29.9 µM (inactive) with MDA-MB-435. For the same compound, the GI50 in the assay with MDA-MB-231 was 56.4 µM (inactive); in the assay with NCI-H522 it was 13 µM (inactive); in the assay with OVCAR-3, 60.1 µM (inactive); in the assay with SK-OV-3, 40 µM (inactive); with HL-60, 11.3 µM (inactive); with OVCAR-8 it was 26.4 µM (inactive).
In the case of `O=c1c(C(c2ccc3ccccc3c2)c2c(O)oc3cc(O)ccc3c2=O)c(O)oc2cc(O)ccc12`, the GI50 with NCI-H23 was > 100 µM (inactive); in the assay with HCT-15 it was over 100 µM; in the assay with T47D, > 100 µM (inactive); in the assay with TK-10, > 100 µM (inactive); in the assay on U-251 it was 41.5 µM (inactive); with K562 it was 30.5 µM (inactive). In addition, the GI50 is 21.3 µM (inactive) in the assay with Hs-578T; 15.9 µM (inactive) in the assay with SF-268; 17.5 µM (inactive) in the assay on SNB-75; 88.5 µM (inactive) in the assay with RXF 393; 46 µM (inactive) in the assay with MDA-MB-435; > 100 µM (inactive) in the assay with MDA-MB-231. Also, the GI50 is 50.8 µM (inactive) with NCI-H522; 80 µM (inactive) with OVCAR-3; > 100 µM (inactive) with SK-MEL-2; > 100 µM (inactive) with SK-OV-3; 38.5 µM (inactive) in the assay on HL-60; 71 µM (inactive) in the assay on OVCAR-8.
Take `O=C(/N=N/c1ccc(Br)cc1)NNc1ccc(Br)cc1`: the GI50 was 22.5 µM (inactive) in the assay on NCI-H23; 19.4 µM with HCT-15; 29.8 µM (inactive) in the assay on T47D; 17.5 µM (inactive) in the assay with U-251; 10.5 µM (inactive) with K562; > 10 µM (inactive) with Hs-578T. The GI50 was 29.4 µM (inactive) with SNB-75; 14.1 µM (inactive) in the assay with RXF 393; 19.8 µM (inactive) with MDA-MB-435; 21.2 µM (inactive) with MDA-MB-231; 16.2 µM (inactive) in the assay with NCI-H522; 16.8 µM (inactive) in the assay on OVCAR-3. Also, the GI50 was 19.1 µM (inactive) in the assay with SK-MEL-2, 29 µM (inactive) in the assay with SK-OV-3, 14 µM (inactive) in the assay with HL-60 and 29.7 µM (inactive) in the assay on OVCAR-8.
In the case of `Cc1c2ccccc2nc2[nH]c3ccncc3c12`, the GI50 with NCI-H23 is 33 µM (inactive); in the assay with HCT-15 it was 26.5 µM; with T47D, 33.7 µM (inactive); with TK-10 it was 19.3 µM (inactive); with U-251, 30.1 µM (inactive); with K562 it was 51.5 µM (inactive). For the same compound, the GI50 with OVCAR-4 was 45.6 µM (inactive); in the assay with Hs-578T it was 50.7 µM (inactive); in the assay on SF-268, 11.1 µM (inactive); with SNB-75, 86.3 µM (inactive); in the assay on MDA-MB-435, 33 µM (inactive); in the assay with MDA-MB-231, 78.5 µM (inactive). Further, the GI50 in the assay on NCI-H522 was 36.1 µM (inactive); in the assay on OVCAR-3, 30.3 µM (inactive); with SK-MEL-2 it was 40.7 µM (inactive); in the assay with SK-OV-3, 50 µM (inactive); in the assay with HL-60, 26.9 µM (inactive); with OVCAR-8 it was 31.3 µM (inactive).
With `CCCCN(CCCC)C1=Nc2ccccc2-n2c(nnc2C(=O)OCC)C1`, the GI50 in the assay with NCI-H23 is 74.6 µM (inactive); in the assay on T47D, 10.4 µM (inactive); in the assay with TK-10, 38.7 µM (inactive); with K562, 16.5 µM (inactive); with OVCAR-4 it was 61.8 µM (inactive); with Hs-578T it was > 100 µM (inactive). Besides, the GI50 was 50.9 µM (inactive) in the assay on SF-268; 33.1 µM (inactive) in the assay on SNB-75; 24.7 µM (inactive) with RXF 393; 38.5 µM (inactive) with MDA-MB-435; 38.1 µM (inactive) in the assay with MDA-MB-231; > 100 µM (inactive) in the assay with NCI-H522. The GI50 is 37.2 µM (inactive) in the assay on OVCAR-3, 68.4 µM (inactive) with SK-OV-3, 15.6 µM (inactive) with HL-60 and 69.3 µM (inactive) in the assay on OVCAR-8.
`CNC(C)C(O)c1ccc2oc3cc(=O)c4ccccc4c-3nc2c1` (configuration not stated): the GI50 with NCI-H23 was 4.3 µM (inactive); in the assay on HCT-15 it was 4.83 µM; in the assay with T47D, 31.6 µM (inactive); with TK-10, 38.7 µM (inactive); in the assay on U-251, 4.34 µM (inactive); in the assay on K562, 2.72 µM (inactive). Moreover, the GI50 in the assay with OVCAR-4 is 17.3 µM (inactive); in the assay with Hs-578T, 2.26 µM (inactive); with SF-268, 27.2 µM (inactive); in the assay with RXF 393, 25.8 µM (inactive); with MDA-MB-435 it was 1.97 µM (inactive); with MDA-MB-231 it was 45.5 µM (inactive). Further, the GI50 in the assay on NCI-H522 was 13.3 µM (inactive); with OVCAR-3, 11.9 µM (inactive); in the assay with SK-MEL-2, 4.69 µM (inactive); in the assay on SK-OV-3, 40.1 µM (inactive); in the assay on HL-60, 21.8 µM (inactive); in the assay on OVCAR-8, 6.15 µM (inactive).
Consider `O=C(/C=C/c1ccc2c(c1)OCO2)NCCc1ccco1`, for which the GI50 in the assay on NCI-H23 is > 100 µM (inactive); with T47D, 26.5 µM (inactive); in the assay with TK-10, 65.8 µM (inactive); in the assay with U-251 it was > 100 µM (inactive); in the assay with K562, 39.7 µM (inactive); in the assay with OVCAR-4, > 100 µM (inactive). Also, the GI50 is 65.3 µM (inactive) in the assay on Hs-578T; > 100 µM (inactive) in the assay with SF-268; > 100 µM (inactive) with SNB-75; > 100 µM (inactive) in the assay on RXF 393; 64.7 µM (inactive) with MDA-MB-435; 44.8 µM (inactive) in the assay on MDA-MB-231. Moreover, the GI50 with NCI-H522 is 37.9 µM (inactive); with OVCAR-3, 34.4 µM (inactive); with SK-MEL-2, > 100 µM (inactive); with SK-OV-3, > 100 µM (inactive); in the assay with OVCAR-8, > 100 µM (inactive).
For the compound `C[C@@H]1CC[C@@]2(OC1)O[C@H]1[C@@H](O)[C@H]3[C@@H]4CC[C@H]5C[C@@H](O[C@@H]6O[C@H](CO)[C@H](O[C@@H]7O[C@H](CO)C(O)[C@H](O[C@@H]8OC[C@@H](O)[C@H](O)[C@H]8O)[C@H]7O[C@@H]7O[C@H](CO)[C@H](O)[C@H](O[C@@H]8O[C@H](CO)[C@@H](O)[C@H](O)[C@H]8O)[C@H]7O)[C@H](O)[C@H]6O)[C@H](O)C[C@]5(C)[C@H]4CC[C@]3(C)[C@H]1[C@@H]2C` (some centres not stated) [DIGITONIN], the GI50 is 2.26 µM (inactive) in the assay with NCI-H23; 4.03 µM with HCT-15; 3 µM (inactive) in the assay on T47D; 2.49 µM (inactive) in the assay with TK-10; 3.43 µM (inactive) with U-251; 3.08 µM (inactive) in the assay on K562. Moreover, the GI50 is 1.97 µM (inactive) with OVCAR-4; 2.06 µM (inactive) in the assay with Hs-578T; 2.09 µM (inactive) with SF-268; 2.83 µM (inactive) in the assay on SNB-75; 11.2 µM (inactive) in the assay on MDA-MB-435; 2.48 µM (inactive) in the assay with MDA-MB-231. Also, the GI50 in the assay on NCI-H522 was 2.06 µM (inactive); in the assay on OVCAR-3 it was 1.55 µM (inactive); with SK-MEL-2, 3.37 µM (inactive); in the assay on SK-OV-3, 2.36 µM (inactive); with HL-60, 2.9 µM (inactive); in the assay on OVCAR-8, 2.02 µM (inactive).
As for `CCP(=O)(CC)C(Cl)(Cl)C(=O)NC`, the GI50 in the assay with NCI-H23 is > 100 µM (inactive); with HCT-15, over 100 µM; in the assay on T47D, > 100 µM (inactive); in the assay with TK-10, > 100 µM (inactive); in the assay on U-251 it was > 100 µM (inactive); in the assay with K562, > 100 µM (inactive). Besides, the GI50 with OVCAR-4, in the assay with Hs-578T, in the assay with SNB-75, with MDA-MB-435, in the assay on MDA-MB-231 and in the assay on NCI-H522 was > 100 µM (inactive) throughout. For the same compound, the GI50 in the assay with OVCAR-3, in the assay on SK-MEL-2, in the assay with SK-OV-3, in the assay on HL-60 and in the assay with OVCAR-8 was > 100 µM (inactive) throughout.
For `COc1c2c(cc3c1OCO3)C13C=CC(OC)CC1N(CC3)C2.[O-][Cl+3]([O-])([O-])O` (configuration not stated), the GI50 in the assay with NCI-H23 is > 100 µM (inactive); in the assay on HCT-15 it was 28.4 µM; with T47D, > 100 µM (inactive); with TK-10, > 100 µM (inactive); in the assay on U-251 it was > 100 µM (inactive); with OVCAR-4, 49.3 µM (inactive). Also, the GI50 was > 100 µM (inactive) in the assay with Hs-578T; > 100 µM (inactive) in the assay on SF-268; > 100 µM (inactive) in the assay on SNB-75; > 100 µM (inactive) in the assay with RXF 393; 34.3 µM (inactive) with MDA-MB-435; > 100 µM (inactive) with MDA-MB-231. In addition, the GI50 in the assay on NCI-H522 is > 100 µM (inactive); in the assay with OVCAR-3, > 100 µM (inactive); in the assay with SK-MEL-2 it was > 100 µM (inactive); in the assay with SK-OV-3, > 100 µM (inactive); with HL-60, 39.4 µM (inactive); with OVCAR-8, > 100 µM (inactive).
